In patent publication US5773029A, “High solubility multicomponent inclusion complexes consisting of an acidic drug, a cyclodextrin and a base” (Chiesi Farmaceutici S.p.A., priority 1994, dated 1998):
Values after ≈ are worked out from the molar mass of the structure shown. One block for each compound: values may come before it.

Tests used:
physchem = experiment: physchem
Description: Equilibrium solubility, at room temperature,
at different pH values, of Glibenclamide (G), its
sodium salt (G--Na), and a physical mixture thereof with
βCD (G/βCD) in a 1:1, 1:2, 1:3.
Equilibrium solubility (eq.) and instant solubility
at various times, at room temperature, at different pH values, […]

[1] = cited from earlier work
[2] = Dissolution: glibenclamide concentration versus time at room temperature in buffer (Table 3); assay type: physicochemical

solubility thermodynamic (physchem): 400 to 700 µg/mL (≈ 1350 to 2370 µM)
SMILES: NS(=O)(=O)c1cc2c(cc1Cl)N=CNS2(=O)=O [Chlorothiazide]

solubility thermodynamic (physchem; pH 4): 4 µg/mL (≈ 8.1 µM)
solubility thermodynamic (physchem; pH 7.39): 18.8 µg/mL (≈ 38.1 µM)
solubility thermodynamic (physchem; pH 7.5): 20 µg/mL (≈ 40.5 µM)
solubility thermodynamic (physchem; pH 8.89): 299 µg/mL (≈ 605 µM)
solubility thermodynamic (physchem; pH 9): 600 µg/mL (≈ 1210 µM)
solubility thermodynamic (physchem; pH 9.53): 768 µg/mL (≈ 1550 µM)
Glibenclamide concentration by dissolution ([2]; pH 1.4, 05 min): < 0.01 mg/mL
Glibenclamide concentration by dissolution ([2]; pH 1.4, 15 min): < 0.01 mg/mL
Glibenclamide concentration by dissolution ([2]; pH 1.4, 30 min): < 0.01 mg/mL
Glibenclamide concentration by dissolution ([2]; pH 1.4, 40 min): < 0.01 mg/mL
Glibenclamide concentration by dissolution ([2]; pH 1.4, 50 min): < 0.01 mg/mL
Glibenclamide concentration by dissolution ([2]; pH 5.0, 05 min): < 0.01 mg/mL
Glibenclamide concentration by dissolution ([2]; pH 5.0, 10 min): < 0.01 mg/mL
Glibenclamide concentration by dissolution ([2]; pH 5.0, 20 min): < 0.01 mg/mL
Glibenclamide concentration by dissolution ([2]; pH 5.0, 40 min): < 0.01 mg/mL
Glibenclamide concentration by dissolution ([2]; pH 5.0, 50 min): < 0.01 mg/mL
SMILES: COc1ccc(Cl)cc1C(=O)NCCc1ccc(S(=O)(=O)NC(=O)NC2CCCCC2)cc1 [G, Glibenclamide]
pKa [1]: 6.8

solubility thermodynamic (physchem; pH 9.3): 7000 µg/mL (≈ 14200 µM)
SMILES: COc1ccc(Cl)cc1C(=O)NCCc1ccc(S(=O)(=O)NC(=O)NC2CCCCC2)cc1 [G--Na]

SMILES: CN1C(C(=O)Nc2ccccn2)=C(O)c2ccccc2S1(=O)=O [P, Piroxicam]
solubility thermodynamic (physchem; pH 1.2): 108 µg/mL (≈ 326 µM)
solubility thermodynamic (physchem; pH 6): 76 µg/mL (≈ 229 µM)
solubility thermodynamic (physchem; pH 7): 570 µg/mL (≈ 1720 µM)
solubility thermodynamic (physchem; pH 7.5): 1030 µg/mL (≈ 3110 µM)
